This passage reports T/C results from PubChem BioAssay AID248 (DTP/NCI, 2004).

Molecules are shown by their SMILES. “And” between values parts separate entries of the source, which are not always exact repeats. Equal values may be shown once. Inconclusive results and toxic doses are left out.

This assay concerns L1210 leukemia ip in BDF1 mice, survival T/C. The experiment in a line: NCI In Vivo Anticancer Drug Screen. Data for tumor model L1210 Leukemia (intraperitoneal) in B6D2F1 (BDF1) mice. To be noted: endpoint: mean survival time, higher = longer survival. An outline of the steps:
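Transplantable tumor model; survival measured in treated vs vehicle control mice. Value = treated/control.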

[1] abbreviates: dose: 100.0 mg/kg/injection, schedule: Q01DX001 (ip), vehicle: saline.
The mark [2] stands for this setting: dose: 200.0 mg/kg/injection, schedule: Q01DX001 (ip), vehicle: saline.
[3] abbreviates: dose: 100.0 mg/kg/injection, schedule: Q04DX003 (ip), vehicle: Klucel (hydroxypropylcellulose) (HPC).
[4] abbreviates: dose: 200.0 mg/kg/injection, schedule: Q04DX003 (ip), vehicle: Klucel (hydroxypropylcellulose) (HPC).
Setting [5] is: dose: 400.0 mg/kg/injection, schedule: Q04DX003 (ip), vehicle: Klucel (hydroxypropylcellulose) (HPC).
The mark [6] stands for this setting: dose: 100.0 mg/kg/injection, schedule: Q04DX002 (ip), vehicle: Klucel (hydroxypropylcellulose) (HPC).
Where [7] appears, read: dose: 200.0 mg/kg/injection, schedule: Q04DX002 (ip), vehicle: Klucel (hydroxypropylcellulose) (HPC).
The mark [8] stands for this setting: dose: 100.0 mg/kg/injection, schedule: Q01DX009 (ip), vehicle: Klucel (hydroxypropylcellulose) (HPC).
[9] abbreviates: dose: 200.0 mg/kg/injection, schedule: Q01DX009 (ip), vehicle: Klucel (hydroxypropylcellulose) (HPC).
The mark [10] stands for this setting: dose: 400.0 mg/kg/injection, schedule: Q01DX009 (ip), vehicle: Klucel (hydroxypropylcellulose) (HPC).
The mark [11] stands for this setting: dose: 400.0 mg/kg/injection, schedule: Q04DX002 (ip), vehicle: Klucel (hydroxypropylcellulose) (HPC).

Take `O=P1(NCCCl)OCCC(O)N1CCCl` (configuration not stated): the T/C reads like this: (dose: 100.0 mg/kg/injection, schedule: Q01DX001 (ip), vehicle: DMSO) 242 % of control; (dose: 200.0 mg/kg/injection, schedule: Q01DX001 (ip), vehicle: DMSO) 284 % of control; (dose: 400.0 mg/kg/injection, schedule: Q01DX001 (ip), vehicle: DMSO) 273 % of control.

For the compound `CC(C(=O)O)S(=O)(=O)Cc1ccccc1` (configuration not stated), the T/C under setting [1] is 94 % of control; the T/C under setting [2] was 97 % of control; the T/C (dose: 400.0 mg/kg/injection, schedule: Q01DX001 (ip), vehicle: saline) was 100 % of control.

On to `CC(C)C1=CC23CCC4C(C)(C(N)=O)CCCC4(C)C2CC1C1C(=O)NC(=O)C13` (configuration not stated), for which the T/C was 97 % of control under setting [3], 95 % of control under setting [4] and 92 % of control under setting [5].

Take `CCC1CN1P(=O)(N(CC)CC)N1CC1CC` (configuration not stated): the T/C by setting is: (dose: 29.0 mg/kg/injection, schedule: Q01DX015 (ip), vehicle: saline) 100 % of control; (dose: 44.0 mg/kg/injection, schedule: Q01DX015 (ip), vehicle: saline) 105 % of control; (dose: 66.0 mg/kg/injection, schedule: Q01DX015 (ip), vehicle: saline) 109 % of control; (dose: 89.0 mg/kg/injection, schedule: Q01DX001 (ip), vehicle: saline) 111 % of control; under setting [1], 103 % of control; (dose: 100.0 mg/kg/injection, schedule: Q01DX009 (ip), vehicle: saline) 107 % of control. In addition, the T/C was 110 % of control (dose: 100.0 mg/kg/injection, schedule: Q01DX015 (ip), vehicle: saline); 119 % of control (dose: 133.0 mg/kg/injection, schedule: Q01DX001 (ip), vehicle: saline); 107 % of control (dose: 150.0 mg/kg/injection, schedule: Q01DX009 (ip), vehicle: saline); 121 % of control under setting [2].

Consider `CS(=O)(=O)OCCN(CCOS(C)(=O)=O)c1cccc(N)c1`, for which the T/C (dose: 0.22 mg/kg/injection, schedule: Q01DX001 (ip), vehicle: saline) was 105 % of control; the T/C (dose: 0.33 mg/kg/injection, schedule: Q01DX001 (ip), vehicle: saline) was 105 % of control; the T/C (dose: 0.5 mg/kg/injection, schedule: Q01DX001 (ip), vehicle: saline) was 97 % of control and 110 % of control; the T/C (dose: 0.75 mg/kg/injection, schedule: Q01DX001 (ip), vehicle: saline) was 106 % of control; the T/C (dose: 1.0 mg/kg/injection, schedule: Q01DX001 (ip), vehicle: saline) was 109 % of control; the T/C (dose: 2.0 mg/kg/injection, schedule: Q01DX001 (ip), vehicle: saline) was 117 % of control. Also, the T/C reads like this: (dose: 3.5 mg/kg/injection, schedule: Q01DX001 (ip), vehicle: saline) 116 % of control; (dose: 5.3 mg/kg/injection, schedule: Q01DX001 (ip), vehicle: saline) 91 % of control; (dose: 8.0 mg/kg/injection, schedule: Q01DX001 (ip), vehicle: saline) 209 % of control and 86 % of control.

Consider `CCNC1(c2cccs2)CCCCC1=O` (configuration not stated), for which the T/C reads like this: (dose: 20.0 mg/kg/injection, schedule: Q04DX003 (ip), vehicle: saline) 102 % of control; (dose: 40.0 mg/kg/injection, schedule: Q04DX003 (ip), vehicle: saline) 104 % of control; (dose: 80.0 mg/kg/injection, schedule: Q04DX003 (ip), vehicle: saline) 102 % of control.

Consider `CC(C)(C)NC(=O)NC(C)(C)C`, for which the T/C is 95 % of control (dose: 50.0 mg/kg/injection, schedule: Q04DX002 (ip), vehicle: Klucel (hydroxypropylcellulose) (HPC)); 92 % of control under setting [6]; 103 % of control under setting [7].

`CCCCCCCCCCCCCCCCCSc1ccc2ccccc2c1`: the T/C was 97 % of control under setting [8], 100 % of control under setting [9] and 95 % of control under setting [10].

`COc1cccc(-c2cc3c(OC)ccc(OC)c3[nH]2)c1`: the T/C under setting [6] was 99 % of control, the T/C under setting [7] was 89 % of control and the T/C under setting [11] is 99 % of control.

Regarding `CCCCN1C(=O)C(=O)N(c2ccccc2C(F)(F)F)C1=O`, the T/C is 106 % of control and 88 % of control under setting [8]; 94 % of control and 105 % of control under setting [6]; 106 % of control under setting [9]; 101 % of control and 90 % of control under setting [7]; 107 % of control under setting [10]; 94 % of control and 116 % of control under setting [11].

With `CCCCCCCCCCCCSC(=N)N`, the T/C by setting is: (dose: 12.5 mg/kg/injection, schedule: Q01DX009 (ip), vehicle: acetone) 103 % of control; (dose: 12.5 mg/kg/injection, schedule: Q04DX003 (ip), vehicle: saline with Tween-80) 98 % of control; (dose: 25.0 mg/kg/injection, schedule: Q01DX009 (ip), vehicle: acetone) 95 % of control; (dose: 25.0 mg/kg/injection, schedule: Q04DX003 (ip), vehicle: saline with Tween-80) 100 % of control; (dose: 25.0 mg/kg/injection, schedule: Q04DX003 (ip), vehicle: saline) 104 % of control; (dose: 35.0 mg/kg/injection, schedule: Q04DX003 (ip), vehicle: saline) 89 % of control. Further, the T/C reads like this: (dose: 50.0 mg/kg/injection, schedule: Q04DX003 (ip), vehicle: saline with Tween-80) 95 % of control; (dose: 50.0 mg/kg/injection, schedule: Q04DX003 (ip), vehicle: saline) 91 % of control; (dose: 75.0 mg/kg/injection, schedule: Q04DX003 (ip), vehicle: saline) 89 % of control; (dose: 100.0 mg/kg/injection, schedule: Q04DX003 (ip), vehicle: saline) 94 % of control and 95 % of control; (dose: 115.0 mg/kg/injection, schedule: Q04DX003 (ip), vehicle: saline) 97 % of control.

Regarding `CC(=O)OC(C(N)=O)C(OC(C)=O)C(=O)O` (configuration not stated), the T/C is, setting by setting: (dose: 100.0 mg/kg/injection, schedule: Q04DX003 (ip), vehicle: water) 96 % of control; (dose: 200.0 mg/kg/injection, schedule: Q04DX003 (ip), vehicle: water) 100 % of control; (dose: 400.0 mg/kg/injection, schedule: Q04DX003 (ip), vehicle: water) 97 % of control.

For `CCOc1ccc(-n2c(=O)c(N=Nc3ccccc3C)c(O)n(-c3ccc(C)cc3)c2=S)cc1`, the T/C runs as follows: (dose: 37.5 mg/kg/injection, schedule: Q01DX001 (ip), vehicle: Klucel (hydroxypropylcellulose) (HPC)) 92 % of control; (dose: 75.0 mg/kg/injection, schedule: Q01DX001 (ip), vehicle: Klucel (hydroxypropylcellulose) (HPC)) 101 % of control; (dose: 150.0 mg/kg/injection, schedule: Q01DX001 (ip), vehicle: Klucel (hydroxypropylcellulose) (HPC)) 97 % of control.

For `O=C1NCC(c2ccccc2)(c2ccccc2)C(=O)N1`, the T/C is, setting by setting: (dose: 50.0 mg/kg/injection, schedule: Q01DX001 (ip), vehicle: carboxymethylcellulose (CMC)) 94 % of control; (dose: 100.0 mg/kg/injection, schedule: Q01DX001 (ip), vehicle: carboxymethylcellulose (CMC)) 94 % of control; (dose: 200.0 mg/kg/injection, schedule: Q01DX001 (ip), vehicle: carboxymethylcellulose (CMC)) 91 % of control; (dose: 400.0 mg/kg/injection, schedule: Q01DX001 (ip), vehicle: carboxymethylcellulose (CMC)) 86 % of control.

Take `Cc1ccc(NC(=O)OCCCl)c([N+](=O)[O-])c1`: the T/C is 106 % of control (dose: 100.0 mg/kg/injection, schedule: Q01DX001 (ip), vehicle: Klucel (hydroxypropylcellulose) (HPC)); 96 % of control and 100 % of control under setting [8]; 97 % of control and 102 % of control under setting [6]; 98 % of control under setting [3]; 101 % of control (dose: 200.0 mg/kg/injection, schedule: Q01DX001 (ip), vehicle: Klucel (hydroxypropylcellulose) (HPC)); 94 % of control and 111 % of control under setting [9]. Moreover, the T/C was 96 % of control and 97 % of control under setting [7]; 93 % of control under setting [4]; 98 % of control (dose: 400.0 mg/kg/injection, schedule: Q01DX001 (ip), vehicle: Klucel (hydroxypropylcellulose) (HPC)); 94 % of control and 91 % of control under setting [10]; 97 % of control and 98 % of control under setting [11]; 111 % of control under setting [5].

As for `CC1=CC(O)C(C(C)C)C1` (configuration not stated), the T/C runs as follows: (dose: 100.0 mg/kg/injection, schedule: Q01DX001 (ip), vehicle: other) 102 % of control; (dose: 200.0 mg/kg/injection, schedule: Q01DX001 (ip), vehicle: other) 98 % of control; (dose: 400.0 mg/kg/injection, schedule: Q01DX001 (ip), vehicle: other) 98 % of control.
